Reference: PubChem BioAssay (NCI)
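In this assay, cells in 96-well plates receive the compound at five concentrations for 48 hours. Endpoints are linearly interpolated between the surrounding concentrations. At the GI50, growth is halved. TGI denotes the concentration required for complete inhibition of growth.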

What was measured:
Experiment in all cases: NCI anticancer screen, dose series, 48 h
K-562 leukemia = test system: K-562 leukemia
SK-MEL-5 melanoma = test system: SK-MEL-5 melanoma
MOLT-4 leukemia = test system: MOLT-4 leukemia
HOP-92 NSCLC = test system: HOP-92 NSCLC
HCT-116 colon = test system: HCT-116 colon
ACHN renal = test system: ACHN renal
HT29 colon = test system: HT29 colon
A549 NSCLC = test system: A549 NSCLC
SNB-75 CNS = test system: SNB-75 CNS
EKVX NSCLC = test system: EKVX NSCLC

## CC(=O)OCC1OC(OC2=C(CC=C(Cl)Cl)C(=O)c3ccccc3C2=O)C(OC(C)=O)C(OC(C)=O)C1OC(C)=O (centres undefined)
K-562 leukemia
  GI50: 1.06 µM
  TGI: > 100 µM
SK-MEL-5 melanoma
  GI50: 4.32 µM
  TGI: 17 µM
MOLT-4 leukemia
  GI50: 1.43 µM
  TGI: 9.89 µM
HOP-92 NSCLC
  GI50: 0.222 µM
  TGI: 1.59 µM
HCT-116 colon
  GI50: 1.74 µM
  TGI: 3.92 µM
ACHN renal
  GI50: 3.24 µM
  TGI: 12 µM
HT29 colon
  GI50: 16 µM
  TGI: 60.5 µM
A549 NSCLC
  GI50: 19.5 µM
  TGI: 41.4 µM
SNB-75 CNS
  GI50: 2.68 µM
  TGI: 19.9 µM

## O=c1c2ccccc2c(=O)c2c1cc(Cl)c1[nH]c3c([nH]c12)c(Cl)cc1c(=O)c2ccccc2c(=O)c13
K-562 leukemia
  TGI: > 100 µM
MOLT-4 leukemia
  TGI: > 100 µM
HCT-116 colon
  TGI: > 100 µM
ACHN renal
  TGI: > 100 µM
HT29 colon
  TGI: > 100 µM
A549 NSCLC
  TGI: > 100 µM
EKVX NSCLC
  TGI: > 100 µM
SNB-75 CNS
  TGI: > 100 µM

## COc1cc(C2CC(c3cc(C)ccc3C)=NN2c2ccc(S(=O)(=O)NC(=O)NCc3ccccc3)cc2)cc(OC)c1OC (centres undefined)
K-562 leukemia
  GI50: 4 µM
  TGI: 34.1 µM
SK-MEL-5 melanoma
  GI50: 2.04 µM
  TGI: 4.36 µM
MOLT-4 leukemia
  GI50: 3.24 µM
  TGI: 25.2 µM
HOP-92 NSCLC
  GI50: 1.96 µM
  TGI: 7.47 µM
HCT-116 colon
  GI50: 3.21 µM
  TGI: > 100 µM
ACHN renal
  GI50: 3.47 µM
  TGI: 13.2 µM
HT29 colon
  GI50: 3.87 µM
  TGI: 47.7 µM
A549 NSCLC
  GI50: 3.31 µM
  TGI: 14.4 µM
SNB-75 CNS
  GI50: 2.33 µM
  TGI: 9.32 µM

## C/C(=C\CCc1ccoc1)CC/C=C(\C)CCCN1CCC(CO)CC1
K-562 leukemia
  GI50: 1.52 µM
  TGI: 3.86 µM
SK-MEL-5 melanoma
  GI50: 1.5 µM
  TGI: 2.84 µM
MOLT-4 leukemia
  GI50: 2.32 µM
  TGI: 5.67 µM
HOP-92 NSCLC
  GI50: 1.44 µM
  TGI: 6.16 µM
HCT-116 colon
  GI50: 2.96 µM
  TGI: 10.4 µM
ACHN renal
  GI50: 4.32 µM
  TGI: 16.7 µM
HT29 colon
  GI50: 2.26 µM
  TGI: 7.48 µM
A549 NSCLC
  GI50: 3.26 µM
  TGI: 13.8 µM
SNB-75 CNS
  GI50: 2.1 µM
  TGI: 7.79 µM

## CC(=O)OC1C(CCl)OC(N=[N+]=[N-])C(OC(C)=O)C1OC(C)=O (centres undefined)
K-562 leukemia
  TGI: > 100 µM
SK-MEL-5 melanoma
  TGI: > 100 µM
MOLT-4 leukemia
  TGI: > 100 µM
HCT-116 colon
  TGI: > 100 µM
ACHN renal
  TGI: > 100 µM
HT29 colon
  TGI: > 100 µM
A549 NSCLC
  TGI: > 100 µM
EKVX NSCLC
  TGI: > 100 µM
SNB-75 CNS
  TGI: > 100 µM

## COc1ccc(/C=C/c2cc(N3CCOCC3)c3cc(F)c(F)cc3n2)cc1OC
SK-MEL-5 melanoma
  GI50: 0.52 µM
  TGI: 2.37 µM
MOLT-4 leukemia
  GI50: 0.624 µM
  TGI: 11 µM
HOP-92 NSCLC
  GI50: 1.36 µM
  TGI: 6.53 µM
HCT-116 colon
  GI50: 0.414 µM
  TGI: 10 µM
ACHN renal
  GI50: 0.615 µM
  TGI: 12.4 µM
A549 NSCLC
  GI50: 1.67 µM
  TGI: 8.99 µM
SNB-75 CNS
  GI50: 1.06 µM
  TGI: 6.63 µM

## C=C1C(=O)O[C@@H]2C[C@@H]1CC[C@@]1(C)O[C@@H]1CC[C@@]1(C)O[C@@H]1CC[C@@]2(C)O
K-562 leukemia
  GI50: > 100 µM
  TGI: > 100 µM
SK-MEL-5 melanoma
  GI50: 16.2 µM
  TGI: 31.4 µM
MOLT-4 leukemia
  GI50: 10.1 µM
  TGI: 32.3 µM
HCT-116 colon
  GI50: 16.4 µM
  TGI: 32 µM
ACHN renal
  GI50: 21.5 µM
  TGI: 66.4 µM
HT29 colon
  GI50: 21 µM
  TGI: 63.2 µM
A549 NSCLC
  GI50: 73.8 µM
  TGI: > 100 µM
EKVX NSCLC
  GI50: 32.3 µM
  TGI: > 100 µM

## CC(C)(C)[Si](C)(C)O/N=C\c1ccc(O[Si](C)(C)C(C)(C)C)cc1
K-562 leukemia
  TGI: > 100 µM
SK-MEL-5 melanoma
  TGI: > 100 µM
MOLT-4 leukemia
  TGI: > 100 µM
HCT-116 colon
  TGI: 63 µM
ACHN renal
  TGI: > 100 µM
HT29 colon
  TGI: > 100 µM
A549 NSCLC
  TGI: > 100 µM
EKVX NSCLC
  TGI: > 100 µM
SNB-75 CNS
  TGI: > 100 µM

## O=C1/C(=C\c2coc3ccccc3c2=O)c2ccccc2N1c1c(Cl)cccc1Cl
K-562 leukemia
  GI50: 2.08 µM
  TGI: > 100 µM
SK-MEL-5 melanoma
  GI50: 2.44 µM
  TGI: > 100 µM
MOLT-4 leukemia
  GI50: 2.98 µM
  TGI: > 100 µM
HCT-116 colon
  GI50: 2.01 µM
  TGI: 14.5 µM
ACHN renal
  GI50: 4.14 µM
  TGI: > 100 µM
HT29 colon
  GI50: 3.05 µM
  TGI: > 100 µM
A549 NSCLC
  GI50: 4.24 µM
  TGI: > 100 µM
EKVX NSCLC
  GI50: 2.82 µM
  TGI: > 100 µM
SNB-75 CNS
  GI50: 1.91 µM
  TGI: 37.4 µM

## Cc1ccccc1N=Nc1c(O)[nH]c2ccccc12
K-562 leukemia
  TGI: > 100 µM
SK-MEL-5 melanoma
  TGI: > 100 µM
MOLT-4 leukemia
  TGI: > 100 µM
HCT-116 colon
  TGI: > 100 µM
ACHN renal
  TGI: > 100 µM
HT29 colon
  TGI: > 100 µM
A549 NSCLC
  TGI: > 100 µM
EKVX NSCLC
  TGI: > 100 µM
SNB-75 CNS
  TGI: > 100 µM

## COc1ccc(-c2nn(-c3cccc(NC(=O)Nc4cc(C(F)(F)F)cc(C(F)(F)F)c4)c3)cc2-c2ccncc2)cc1Cl
K-562 leukemia
  GI50: 1.05 µM
  TGI: 10 µM
SK-MEL-5 melanoma
  GI50: 0.827 µM
  TGI: 1.7 µM
MOLT-4 leukemia
  GI50: 1.2 µM
  TGI: 4 µM
HOP-92 NSCLC
  GI50: 0.17 µM
  TGI: 1.33 µM
HCT-116 colon
  GI50: 0.649 µM
  TGI: 2.17 µM
ACHN renal
  GI50: 1.14 µM
  TGI: 50 µM
HT29 colon
  GI50: 1.29 µM
  TGI: 5.75 µM
A549 NSCLC
  GI50: 1.07 µM
  TGI: 7.6 µM
SNB-75 CNS
  GI50: 0.813 µM
  TGI: 4.18 µM

## O=C1C(Cl)=C(Nc2cccc(O)c2)C(=O)N1c1ccc(Cl)c(Cl)c1
K-562 leukemia
  GI50: 25.5 µM
  TGI: > 100 µM
SK-MEL-5 melanoma
  GI50: 20 µM
  TGI: 64.7 µM
MOLT-4 leukemia
  GI50: 15.1 µM
  TGI: > 100 µM
HOP-92 NSCLC
  GI50: 21.8 µM
  TGI: 70.6 µM
HCT-116 colon
  GI50: 18.4 µM
  TGI: 33.9 µM
ACHN renal
  GI50: 17.3 µM
  TGI: 33.3 µM
A549 NSCLC
  GI50: 23.9 µM
  TGI: 60.6 µM
